Source: patent US11046686B2, “Thiadiazole IRAK4 compounds” (Gilead Sciences, Inc., priority 2018, dated 2021)

Each molecule was assayed on TNFα (assay: IRAK4 Monocyte TNFα Cell Based Assay). Conditions: Homo sapiens, Monocyte, human monocytes, LPS stimulated; compounds 1-32; read-out: EC50 TNF.
Set-up: species or system human
Description: IRAK4 Monocyte TNFα Cell Based Assay Procedure:
The cell suspension was then plated at a density of 5,000 cells/well onto black 384 well Greiner clear bottom plates. Plates were pre-spotted with test compounds and serially diluted in DMSO where 40 nL/well were delivered using the Echo 550 acoustic liquid dispenser (Labcyte®) for a final DMSO concentration of 0.1%. Plated cells were treated with compound for 1 hour at 37° C. Cells were then stimulated with 50 pg/ml of LPS (Sigma) excluding outside columns of plate used for unstimulated cell control wells. Cells were incubated for an additional 4 hours at 37° C. Cells were then spun out of the media and 5 μl of sample were taken and analyzed for total TNFα content using the TR-FRET Human TNFα detection system (CisBio). This system utilizes two labeled antibodies (cryptate and XL665) that bind to two different epitopes of the TNFα molecule and produce FRET signal proportional to the concentration of TNFα in the sample. Detection antibodies are mixed 50:50 and 5 μL were dispensed into each well. Plates were covered with clear seals and incubated at room temp overnight. […] Percent of control was calculated as follows: % Control=100×(Ratiosample−Ratio0% stimulation)/(Ratio100% Stimulation−Ratio0% Stimulation) where unstimulated cells (0% stimulation) were the negative control and stimulated cells (100% stimulation) were used as the positive control.

Structure (SMILES) | EC50 [nM]
CC(=O)NC1CCN(C(=O)c2nnc(-c3cnc(-c4ccc5cc(C#N)cnn45)cc3NC(C)C)s2)CC1 [Example 8, N-(1-(5-(6-(3-cyanopyrrolo[1,2-b]pyridazin-7-yl)-4-(isopropylamino)pyridin-3-yl)-1,3,4-thiadiazole-2-carbonyl)piperidin-4-yl)acetamide] | 7540
CC(C)Nc1cc(-c2ccc3cc(C#N)cnn23)ncc1-c1nnc(C(=O)N2CCCC2)s1 [Example 9, 7-(4-(isopropylamino)-5-(5-(pyrrolidine-1-carbonyl)-1,3,4-thiadiazol-2-yl)pyridin-2-yl)pyrrolo[1,2-b]pyridazine-3-carbonitrile] | 2130
CC(=O)N[C@H]1CC[C@H](c2nnc(-c3cnc(-c4ccc5cc(C#N)cnn45)cc3NC(C)C)s2)CC1 [Example 24, N-((1r,4r)-4-(5-(6-(3-cyanopyrrolo[1,2-b]pyridazin-7-yl)-4-(isopropylamino)pyridin-3-yl)-1,3,4-thiadiazol-2-yl)cyclohexyl)acetamide] | 14
CC(C)Nc1cc(-c2ccc3cc(C#N)cnn23)ncc1-c1nnc(N2CCCC2)s1 [Example 29, 7-(4-(isopropylamino)-5-(5-(pyrrolidin-1-yl)-1,3,4-thiadiazol-2-yl)pyridin-2-yl)pyrrolo[1,2-b]pyridazine-3-carbonitrile] | 4180

Same assay, conditions: human monocytes, LPS stimulated; compounds 1-32; read-out: EC50 TNF

Structure (SMILES) | EC50 [nM]
CC(C)Nc1cc(-c2ccc3cc(C#N)cnn23)ncc1-c1nnc(C2CCOCC2)s1 [Example 32] | 211

Same assay, conditions: human monocytes; second part of Table 2, compounds 33-343; unit inferred; read-out: EC50 MONO TNF HTRF

Structure (SMILES) | EC50 [nM]
CC(=O)N[C@@H]1[C@@H]2CC[C@H]1CN(c1nnc(-c3cnc(-c4ccc5cc(C#N)cnn45)cc3NC3(C)CCOCC3)s1)C2 [Compound 272, N-((1R,5S,8s)-3-(5-(6-(3-cyanopyrrolo[1,2-b]pyridazin-7-yl)-4-((4-methyltetrahydro-2H-pyran-4-yl)amino)pyridin-3-yl)-1,3,4-thiadiazol-2-yl)-3-azabicyclo[3.2.1]octan-8-yl)acetamide] | 4.1
CC(=O)N[C@H]1C[C@H](c2nnc(-c3cnc(-c4ccc5cc(C#N)cnn45)cc3NC(C)C)s2)C1 [Compound 278, N-((1r,3r)-3-(5-(6-(3-cyanopyrrolo[1,2-b]pyridazin-7-yl)-4-(isopropylamino)pyridin-3-yl)-1,3,4-thiadiazol-2-yl)cyclobutyl)acetamide] | 10000
CC(=O)N[C@H]1C[C@@H](c2nnc(-c3cnc(-c4ccc5cc(C#N)cnn45)cc3NC(C)C)s2)C1 [Compound 279, N-((1s,3s)-3-(5-(6-(3-cyanopyrrolo[1,2-b]pyridazin-7-yl)-4-(isopropylamino)pyridin-3-yl)-1,3,4-thiadiazol-2-yl)cyclobutyl)acetamide] | 15.9
CC(C)Nc1cc(-c2ccc3cc(C#N)cnn23)ncc1-c1nnc(CC#N)s1 [Compound 321] | 53.5
CC(C)Nc1cc(-c2ccc3cc(C#N)cnn23)ncc1-c1nnc(-n2cccn2)s1 [Compound 325] | 1000
CC(=O)NC1CN(c2nnc(-c3cnc(-c4ccc5cc(C#N)cnn45)cc3NC(C)C)s2)CC1(F)F (centres unmarked) [Compound 327] | 10.2
CC(C)Nc1cc(-c2ccc3cc(C#N)cnn23)ncc1-c1nnc(N2CC(N3CCC(F)(F)C3)C2)s1 [Compound 328] | 80.5
CC(=O)N[C@@H]1CCN(c2nnc(-c3cnc(-c4ccc5cc(C#N)cnn45)cc3NC(C)C)s2)C1 [Compound 330] | 47.1
CC(=O)N[C@H]1CCN(c2nnc(-c3cnc(-c4ccc5cc(C#N)cnn45)cc3NC(C)C)s2)C1 [Compound 331] | 81.4
CC(=O)NC12CCC(c3nnc(-c4cnc(-c5ccc6cc(C#N)cnn56)cc4NC4COC4)s3)(C1)C2 [Compound 334] | 98.9
CC(C)(O)C(=O)NC12CCC(c3nnc(-c4cnc(-c5ccc6cc(C#N)cnn56)cc4NC4COC4)s3)(C1)C2 [Compound 335] | 48.9
CC(C)Nc1cc(-c2ccc3cc(C#N)cnn23)ncc1-c1nnc([C@H]2CC[C@H](NC(=O)CN=S(C)(C)=O)CC2)s1 [Compound 339] | 9.1
CC(C)Nc1cc(-c2ccc3cc(C#N)cnn23)ncc1-c1nnc(C2CCC(NC(=O)C(C)(C)C(=O)O)CC2)s1 (centres unmarked) [Compound 341] | 72.4
CC(=O)NC[C@H]1CCCN1C(=O)c1nnc(-c2cnc(-c3ccc4cc(C#N)cnn34)cc2NC(C)C)s1 [Example 42] | 35.7
CC(=O)N[C@H]1[C@@H]2C[C@H]1CN(c1nnc(-c3cnc(-c4ccc5cc(C#N)cnn45)cc3NC(C)C)s1)C2 [Example 45] | 11.8
CC(C)Nc1cc(-c2ccc3cc(C#N)cnn23)ncc1-c1nnc(C(=O)N2CC[C@@H](NC(=O)C3CC3)C2)s1 [Example 47] | 5680
COC(=O)NC[C@H]1C[C@H](Nc2cc(-c3ccc4cc(C#N)cnn34)ncc2-c2nnc(N3C[C@H]4CC[C@@H](C3)[C@@H]4NC(C)=O)s2)C1 [Example 52] | 4.1
CC(=O)N[C@@H]1[C@@H]2CC[C@H]1CN(c1nnc(-c3cnc(-c4ccc5cc(C#N)cnn45)cc3N[C@H](C)C#N)s1)C2 [Example 53, N-((1R,5S,8S)-3-(5-(4-(((R)-1-cyanoethyl)amino)-6-(3-cyanopyrrolo[1,2-b]pyridazin-7-yl)pyridin-3-yl)-1,3,4-thiadiazol-2-yl)-3-azabicyclo[3.2.1]octan-8-yl)acetamide] | 0.6
COC(=O)N[C@H]1CC[C@H](Nc2cc(-c3ccc4cc(C#N)cnn34)ncc2-c2nnc(N3C[C@H]4CC[C@@H](C3)[C@@H]4NC(C)=O)s2)CC1 [Example 54, methyl ((1R,4r)-4-((5-(5-((1R,5S,8S)-8-acetamido-3-azabicyclo[3.2.1]octan-3-yl)-1,3,4-thiadiazol-2-yl)-2-(3-cyanopyrrolo[1,2-b]pyridazin-7-yl)pyridin-4-yl)amino)cyclohexyl)carbamate] | 2.4
CC(=O)N[C@H]1C[C@H]2CC[C@@H](C1)N2c1nnc(-c2cnc(-c3ccc4cc(C#N)cnn34)cc2NC(C)C)s1 [Example 55, N-((1R,3r,5S)-8-(5-(6-(3-cyanopyrrolo[1,2-b]pyridazin-7-yl)-4-(isopropylamino)pyridin-3-yl)-1,3,4-thiadiazol-2-yl)-8-azabicyclo[3.2.1]octan-3-yl)acetamide] | 115

The remaining lines, values ahead:

EC50 [nM] | Structure (SMILES)
7.8 | CC(C)Nc1cc(-c2ccc3cc(C#N)cnn23)ncc1-c1nnc(N2C3CC2CN(C(=O)CN=S(C)(C)=O)C3)s1 [Compound 276, 7-(5-(5-(3-(2-((dimethyl(oxo)-16-sulfanylidene)amino)acetyl)-3,6-diazabicyclo[3.1.1]heptan-6-yl)-1,3,4-thiadiazol-2-yl)-4-(isopropylamino)pyridin-2-yl)pyrrolo[1,2-b]pyridazine-3-carbonitrile]
419 | CC(C)Nc1cc(-c2ccc3cc(C#N)cnn23)ncc1-c1nnc(C2CCOC2)s1 (centres unmarked) [Compound 322]
3.7 | CC(=O)N[C@H]1CN(c2nnc(-c3cnc(-c4ccc5cc(C#N)cnn45)cc3NC(C)C)s2)CC12CC2 [Compound 323]
19.1 | CC(=O)N[C@@H]1CN(c2nnc(-c3cnc(-c4ccc5cc(C#N)cnn45)cc3NC(C)C)s2)CC12CC2 [Compound 324]
54.2 | CC(C)Nc1cc(-c2ccc3cc(C#N)cnn23)ncc1-c1nnc(N2CCC[C@H]2CO)s1 [Compound 329]
1000 | CC(C)Nc1cc(-c2ccc3cc(C#N)cnn23)ncc1-c1nnc(C2CCC(C#N)CC2)s1 (centres unmarked) [Compound 333]
2.7 | CS(C)(=O)=NCC(=O)NC12CCC(c3nnc(-c4cnc(-c5ccc6cc(C#N)cnn56)cc4NC4CCOCC4)s3)(CC1)CC2 [Compound 338]
9.1 | CC(C)Nc1cc(-c2ccc3cc(C#N)cnn23)ncc1-c1nnc([C@H]2CC[C@H](NC(=O)C3CCN(C)CC3)CC2)s1 [Compound 340]
4.9 | COC(=O)N[C@H]1CC[C@H](Nc2cc(-c3ccc4cc(C#N)cnn34)ncc2-c2nnc([C@H]3CC[C@H](NC(C)=O)CC3)s2)CC1 [Example 34, methyl ((1R,4r)-4-((5-(5-((1r,4R)-4-acetamidocyclohexyl)-1,3,4-thiadiazol-2-yl)-2-(3-cyanopyrrolo[1,2-b]pyridazin-7-yl)pyridin-4-yl)amino)cyclohexyl)carbamate]
3.5 | CC(=O)N[C@@H]1[C@@H]2CC[C@H]1CN(c1nnc(-c3cnc(-c4ccc5cc(C#N)cnn45)cc3NC(C)C)s1)C2 [Example 38]
10.4 | CC(=O)N[C@H]1[C@@H]2CC[C@H]1CN(c1nnc(-c3cnc(-c4ccc5cc(C#N)cnn45)cc3NC(C)C)s1)C2 [Example 39]
21.9 | COC(=O)N[C@H]1CCN(C(=O)c2nnc(-c3cnc(-c4ccc5cc(C#N)cnn45)cc3NC(C)C)s2)C1 [Example 43, methyl (S)-(1-(5-(6-(3-cyanopyrrolo[1,2-b]pyridazin-7-yl)-4-(isopropylamino)pyridin-3-yl)-1,3,4-thiadiazole-2-carbonyl)pyrrolidin-3-yl)carbarnate]
4.7 | COC(=O)NC[C@H]1C[C@H](Nc2cc(-c3ccc4cc(C#N)cnn34)ncc2-c2nnc(N3CCN4CCOC[C@H]4C3)s2)C1 [Example 51, methyl (((1R,3r)-3-((2-(3-cyanopyrrolo[1,2-b]pyridazin-7-yl)-5-(5-((R)-hexahydropyrazino[2,1-c][1,4]oxazin-8(1H)-yl)-1,3,4-thiadiazol-2-yl)pyridin-4-yl)amino)cyclobutyl)methyl)carbamate]
